Tests used:
Details in all cases: 72 h
[1] = test system: Vero E6; assay: drug sensitivity score (DSS) for viability; higher = more toxic; extreme values may be limits of the assay
[2] = test system: HepG2; assay: as above
[3] = test system: Calu-3; assay: as above
[4] = test system: U2OS; assay: as above
[5] = test system: Caco-2; assay: as above
[6] = test system: Vero E6; assay: relative viability EC50 (midpoint between 100% and the lowest measured viability); higher = less toxic
[7] = test system: HepG2; assay: as above
[8] = test system: Calu-3; assay: as above
[9] = test system: U2OS; assay: as above
[10] = test system: Caco-2; assay: as above
[11] = test system: Vero E6; assay: cell viability relative to DMSO; higher = less toxic
[12] = test system: HepG2; assay: as above
[13] = test system: Calu-3; assay: as above
[14] = test system: U2OS; assay: as above
[15] = test system: Caco-2; assay: as above

| Structure (SMILES) | drug sensitivity score [1] | drug sensitivity score [2] | drug sensitivity score [3] | drug sensitivity score [4] | drug sensitivity score [5] | relative viability EC50 [6] [µM] | relative viability EC50 [7] [µM] | relative viability EC50 [8] [µM] | relative viability EC50 [9] [µM] | relative viability EC50 [10] [µM] | cell viability ([11]; 1 nM) [%] | cell viability ([11]; 10 nM) [%] | cell viability ([11]; 100 nM) [%] | cell viability ([11]; 1000 nM) [%] | cell viability ([11]; 10000 nM) [%] | cell viability ([12]; 1 nM) [%] | cell viability ([12]; 10 nM) [%] | cell viability ([12]; 100 nM) [%] | cell viability ([12]; 1000 nM) [%] | cell viability ([12]; 10000 nM) [%] | cell viability ([13]; 1 nM) [%] | cell viability ([13]; 10 nM) [%] | cell viability ([13]; 100 nM) [%] | cell viability ([13]; 1000 nM) [%] | cell viability ([13]; 10000 nM) [%] | cell viability ([14]; 1 nM) [%] | cell viability ([14]; 10 nM) [%] | cell viability ([14]; 100 nM) [%] | cell viability ([14]; 1000 nM) [%] | cell viability ([14]; 10000 nM) [%] | cell viability ([15]; 1 nM) [%] | cell viability ([15]; 10 nM) [%] | cell viability ([15]; 100 nM) [%] | cell viability ([15]; 1000 nM) [%] | cell viability ([15]; 10000 nM) [%] |
| --- | --- | --- | --- | --- | --- | --- | --- | --- | --- | --- | --- | --- | --- | --- | --- | --- | --- | --- | --- | --- | --- | --- | --- | --- | --- | --- | --- | --- | --- | --- | --- | --- | --- | --- | --- |
| C[C@H]1O[C@@H](O[C@H]2[C@@H](O)C[C@H](O[C@H]3[C@@H](O)C[C@H](O[C@H]4CC[C@@]5(C)[C@H](CC[C@@H]6[C@@H]5C[C@@H](O)[C@]5(C)[C@@H](C7=CC(=O)OC7)CC[C@]65O)C4)O[C@@H]3C)O[C@@H]2C)C[C@H](O)[C@@H]1O [digoxin] | 30.2 | 18.9 | 14 | 20.1 | 18.9 | 0.031 | 0.177 | 0.449 | 0.182 | 0.114 | 95.1 | 94.9 | 5.8 | 1.2 | 1.3 | 107 | 105 | 72 | 16.4 | 8.7 | 101 | 102 | 96.4 | 26.5 | 12.8 | 97.3 | 96.1 | 82.7 | 4.6 | 4.8 | 97.7 | 99.5 | 65.7 | 21 | 20.3 |
| C[C@@H]1O[C@@H]1P(=O)(O)O [FOSFOMYCIN CALCIUM] | 0 | 0 | 0 | 0 | 0 | > 10 | > 10 | > 10 | > 10 | > 10 | 105 | 101 | 98.7 | 99.2 | 100 | 97.6 | 101 | 94.8 | 111 | 97.3 | 100 | 104 | 97.7 | 97.5 | 94.9 | 103 | 97.9 | 103 | 98.8 | 102 | 97.3 | 94.5 | 94.4 | 94.1 | 101 |
| Nc1ccc(S(=O)(=O)c2ccc(N)cc2)cc1 [dapsone] | 0 | 0 | 0 | 0 | 0 | > 10 | > 10 | > 10 | > 10 | > 10 | 98.5 | 106 | 105 | 106 | 100 | 112 | 107 | 93.2 | 106 | 96.6 | 104 | 98.6 | 90.4 | 106 | 101 | 99.3 | 97.1 | 95.8 | 96.2 | 100 | 106 | 95.6 | 104 | 100 | 91.7 |

From the supplement of paper PMC13380429
